Test system: rats with spinal cord injury (SCI)
Test: Rat cervical SCI model: histology, capillaries and lesion size
Assay type: in vivo
Experimental: SCI injury model. This study was performed in accordance with the guidelines of the Institutional Animal Care and Use Committee. Adult female Long-Evans rats (275-350 gm) were anesthetized (Ketamine, 60 mg/kg plus Xylazine, 7.5 mg/kg, i.p.). The dura at C4-5 was exposed via a left hemilaminectomy. A hemi-cervical spinal cord contusion was created using a blunt force impactor (1.3-mm impactor head driven by a 10 gm weight dropped vertically 25 mm) (Soblo sky et al., 2001; Gensel et al., 2006). After SCI, animals were given 10 ml of glucose-free normal saline s.q. Rectal temperature was maintained at ˜37° C. using a servo-controlled warming blanket. Blood gases and serum glucose 10-15 min post-SCI were: pO2, 95±6 mm Hg; pCO2, 46±3 mm Hg; pH, 7.33±0.01; glucose 258±17 mg/dl in controls and pO2, 96±7 mm Hg; pCO2, 45±2 mm Hg; pH, 7.37±0.01; glucose 242±14 mg/dl in glibenclamide-treated animals.
Drug delivery. […] During the course of the project, slightly different formulations of drug were used, with the best results obtained using stock solutions made by placing 50 mg (or 25 mg) of drug into 10 ml DMSO, and infusion solutions made by placing 400 μl (or 800 μl) stock into 4.6 ml (or 4.2 ml) unbuffered saline (0.9% NaCl) and adjusting the pH to ˜8.5 using 0.1 N NaOH.
Lesion size. At 7 d post-SCI, cords were paraffin sectioned and stained with H&E. Lesion volumes were calculated from lesion areas measured on serial sections every 250 μm.
Immunohistochemistry. Cryosections were immunolabeled (Chen et al., 2003; Simard et al., 2006) using primary antibodies directed against SUR1 (Santa Cruz, C-16; 1:200; 1 h at RT, 48 h at 4° C.), SUR2 (Santa Cruz, H-80; 1:200; 1 h at RT, 48 h at 4° C.), GFAP (Sigma, C-9205; 1:500), and vimentin (Sigma, monoclonal CY3 conjugated; 1:100). Quantitative immunofluorescence was performed as described (Gerzanich et al., 2003).

## COc1ccc(Cl)cc1C(=O)NCCc1ccc(S(=O)(=O)NC(=O)NC2CCCCC2)cc1 [glibenclamide]
24 h post-SCI, vs controls
  lesion, reactive gliosis and myelin (GFAP and myelin labeling): smaller lesions, less reactive gliosis and better myelin preservation
7 d post-SCI
  lesion volume, reduction compared to controls: 3 fold
post-SCI, vs controls
  vimentin(+) capillaries in region of injury: the capillaries were elongated and appeared more normal

— patent publication US20110263478A1, “SUR1 INHIBITORS FOR THERAPY” (priority 2008, published 2011)
